Patent US9839642B2, “Beta-tetrazolyl-propionic acids as metallo-beta-lactamase inhibitors” (priority 2014, dated 2017)
pIC50: −log10 of the molar value. Read-outs that look alike come from different tables or passages of the source.

Key:
IMP-1 = IMP-1 (Serratia marcescens, UniProt P52699); test: Enzyme activity: determination of IC50, fluorescence assay with CCF2-FA substrate; format: biochemical; settings: CCF2-FA 1.25 μM, 2 hours at 25° C., read-out: IMP1 IC50
Outline: (§1)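 Enzyme (1 pM NDM-1, 2 pM IMP-1, 30 pM VIM-1) incubated with inhibitor (20 to 0.00063 μM) and 1.25 μM CCF2-FA in 100 mM KH2PO4 pH 7, 0.005% Tween-20, 10 μM ZnSO4, 2 h at 25 °C. Fluorescence read at 460 nm (ex 405 nm); IC50 by 4-parameter fit.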

VIM-1 = VIM-1 (Pseudomonas aeruginosa, UniProt A0A0F7KYQ8); test: as above; format: biochemical; settings: CCF2-FA 1.25 μM, 2 hours at 25° C., read-out: VIM1 IC50
Outline: as §1

NDM-1 = NDM-1 (Klebsiella pneumoniae, UniProt C7C422); test: as above; format: biochemical; settings: CCF2-FA 1.25 μM, 2 hours at 25° C., read-out: NDM1 IC50
Outline: as §1

[1] = tested on: Serratia marcescens expressing IMP-1 (CL5741); test: Antibiotic potentiation activity: synergistic concentration (MITC95) with imipenem, growth by OD600; format: cell-based
Outline: (§2)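 Strains grown overnight at 35° C, resuspended in saline, diluted 1:100 into 1.1×CAMHB; imipenem at 1 μg/ml or 4 μg/ml with test compound 200 μM to 0.195 μM. Incubated 22 hours to 24 hours at 35° C, OD600 read; MITC95 is lowest compound concentration inhibiting 95% of growth.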

[2] = tested on: Klebsiella pneumoniae expressing VIM-1 (IHMA599644); test: as above; format: cell-based
Outline: as §2

[3] = tested on: Escherichia coli expressing NDM-1 (CLB30016); test: as above; format: cell-based
Outline: as §2

[4] = 95% inhibition of bacterial growth, strain CL5741
[5] = 95% inhibition of bacterial growth, strain IHMA599644
[6] = 95% inhibition of bacterial growth, strain CLB30016
[7] = S. marcescens CL5741 (IMP-1), 95% inhibition of growth
[8] = K. pneumoniae IHMA599644 (VIM-1), 95% inhibition of growth
[9] = E. coli CLB30016 (NDM-1), 95% inhibition of growth

Chain of NDM-1 (C7C422 29-270, looked up, species assumed): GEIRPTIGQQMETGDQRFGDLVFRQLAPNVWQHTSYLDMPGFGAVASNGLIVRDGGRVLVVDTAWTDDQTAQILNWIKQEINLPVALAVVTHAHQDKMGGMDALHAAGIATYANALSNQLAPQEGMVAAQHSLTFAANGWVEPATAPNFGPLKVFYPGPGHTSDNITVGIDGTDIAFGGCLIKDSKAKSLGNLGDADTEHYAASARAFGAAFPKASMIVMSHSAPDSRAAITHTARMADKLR
Chain of IMP-1 (P52699 19-246, looked up, species assumed): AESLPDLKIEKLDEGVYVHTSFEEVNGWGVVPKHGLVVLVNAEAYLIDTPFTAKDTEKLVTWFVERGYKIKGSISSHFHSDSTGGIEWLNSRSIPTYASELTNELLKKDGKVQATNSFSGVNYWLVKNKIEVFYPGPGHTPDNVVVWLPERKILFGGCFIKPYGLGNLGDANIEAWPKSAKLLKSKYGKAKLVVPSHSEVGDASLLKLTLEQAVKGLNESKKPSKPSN

Compound | pIC50 (IMP-1; enzyme 2 pM) | pIC50 (VIM-1; enzyme 30 pM) | pIC50 (NDM-1; enzyme 1 pM) | IMP1 SM5741 MITC95 [1, 4] [µM] | VIM1 KP599644 MITC95 [2, 5] [µM] | NDM1 EC30016 MITC95 [3, 6] [µM] | pIC50 (IMP-1; IMP-1 enzyme 2 pM) | pIC50 (VIM-1; VIM-1 enzyme 30 pM) | pIC50 (NDM-1; NDM-1 enzyme 1 pM) | IMP1 SM5741 MITC95 [1, 7] [µM] | VIM1 KP599644 MITC95 [2, 8] [µM] | NDM1 EC30016 MITC95 [3, 9] [µM]
CC(C)C[C@H](C(=O)O)[C@H](Cc1ccc(-c2ccc(CO)cc2)cn1)c1nn[nH]n1 [Example 171, (2S)-2-[(1S)-2-{5-[4-(hydroxymethyl)phenyl]pyridin-2-yl}-1-(2H-tetrazol-5-yl)ethyl]-4-methylpentanoic acid] | 6.13 | 7.25 | 7.33 | 62 | 200 | 75 | – | – | – | – | – | –
CCC[C@H](C(=O)O)[C@H](Cc1ccc(-c2nnn[nH]2)cc1)c1nn[nH]n1 [Example 44, (S)-2-((S)-2-(4-(1H-tetrazol-5-yl)phenyl)-1-(2H-tetrazol-5-yl)ethyl)pentanoic acid] | 6.19 | 8.26 | 7.68 | 18.8 | 200 | 150 | – | – | – | – | – | –
CCC[C@H](C(=O)O)[C@H](Cc1ccc(-c2ccc3c(c2)OCC(=O)N3)cn1)c1nnn[nH]1 [Example 169, (2S)-2-[(1S)-2-[5-(3-oxo-3,4-dihydro-2H-1,4-benzoxazin-7-yl)pyridin-2-yl]-1-(1H-tetrazol-5-yl)ethyl]pentanoic acid] | 5.80 | 7.42 | 7.06 | 100 | 200 | 18.8 | – | – | – | – | – | –
CC(C)C[C@H](C(=O)O)[C@H](Cc1ccc(N2CC3(CCNC3)C2)nc1)c1nnn[nH]1 [Example 336, (2S)-2-[(1S)-2-[6-(2,6-diazaspiro[3.4]oct-2-yl)pyridin-3-yl]-1-(1H-tetrazol-5-yl)ethyl]-4-methylpentanoic acid] | – | – | – | – | – | – | 5.92 | 7.70 | 6.74 | 25 | 25 | 3.1
CC(C)C[C@H](C(=O)O)[C@H](Cc1ccc(NCC2CNCCC2O)nc1)c1nnn[nH]1 (stereo partly drawn) [Example 323, (2S)-2-[(1S)-2-(6-{[(4-hydroxypiperidin-3-yl)methyl]amino}pyridin-3-yl)-1-(1H-tetrazol-5-yl)ethyl]-4-methylpentanoic acid] | – | – | – | – | – | – | 6.03 | 7.77 | 6.92 | 6.2 | 18.8 | 1.6
CCC[C@H](C(=O)O)[C@H](Cc1ccccn1)c1nn[nH]n1 [Example 154, (S)-2-((S)-2-(pyridin-2-yl)-1-(1H-tetrazol-5-yl)ethyl)pentanoic acid] | 4.89 | 6.85 | 6.37 | 100 | 25 | 0.78 | – | – | – | – | – | –
CCC[C@H](C(=O)O)[C@H](Cc1ccc(NCCn2ccnn2)cc1)c1nn[nH]n1 [Example 221, (2S)-2-[(1S)-1-(2H-tetrazol-5-yl)-2-(4-{[2-(1H-1,2,3-triazol-1-yl)ethyl]amino}phenyl)ethyl]pentanoic acid] | 6.66 | 7.57 | 7.08 | 16 | 100 | 31 | – | – | – | – | – | –
CCC[C@H](C(=O)O)[C@H](Cc1ccc(-c2ccc(-c3nn[nH]n3)cc2)nc1)c1nn[nH]n1 [Example 97, (S)-2-((S)-2-(6-(4-(2H-tetrazol-5-yl)phenyl)pyridin-3-yl)-1-(1H-tetrazol-5-yl)ethyl)pentanoic acid] | 6.42 | 8.23 | 8.92 | 31 | 200 | 100 | – | – | – | – | – | –
CCC[C@H](C(=O)O)[C@H](Cc1ccc(-c2cnc(N(C)C)nc2)nc1)c1nnn[nH]1 [Example 163, (2S)-2-[(1S)-2-{6-[2-(dimethylamino)pyrimidin-5-yl]pyridin-3-yl}-1-(1H-tetrazol-5-yl)ethyl]pentanoic acid] | 6.22 | 8.42 | 7.60 | 16 | 125 | 38 | – | – | – | – | – | –
CCC[C@H](C(=O)O)[C@H](Cc1ccccc1-c1ccc(CO)cc1)c1nn[nH]n1 [Example 403, (2S)-2-[(1S)-2-[4′-(hydroxymethyl)biphen-yl-2-yl]-1-(2H-tetrazol-5-yl)ethyl]pentanoic acid] | – | – | – | – | – | – | 6.26 | 8.48 | 8.62 | 18.8 | 50 | 9.4
CCC[C@H](C(=O)O)[C@H](Cc1cccc2sc(N)nc12)c1nn[nH]n1 [Example 155, (S)-2-((S)-2-(2-aminobenzo[d]thiazol-4-yl)-1-(2H-tetrazol-5-yl)ethyl)pentanoic acid] | 6.54 | 8.14 | 7.92 | 18.8 | 18.8 | 16 | – | – | – | – | – | –
CC(C)C[C@H](C(=O)O)[C@H](Cc1ccc(N2CCCC(CO)C2)nc1)c1nnn[nH]1 (stereo partly drawn) [Example 309, (2S)-2-[(1S)-2-{6-[3-(hydroxymethyl)piperidin-1-yl]pyridin-3-yl}-1-(1H-tetrazol-5-yl)ethyl]-4-methylpentanoic acid] | – | – | – | – | – | – | 6.82 | 7.62 | 7.21 | 6.2 | 75 | 6.2
CCC[C@H](C(=O)O)[C@H](Cc1ccc(C2CCNCC2)cc1)c1nnn[nH]1 [Example 412, (S)-2-((S)-2-(4-(piperidin-4-yl)phenyl)-1-(1H-tetrazol-5-yl)ethyl)pentanoic acid] | – | – | – | – | – | – | 6.56 | 8.35 | 7.15 | 9.375 | 12.5 | 9.375
CC(C)(C)[C@H](C(=O)O)[C@H](Cc1cccc2sc(N)nc12)c1nnn[nH]1 [Example 424, (2R,3S)-4-(2-aminobenzo[d]thiazol-4-yl)-2-(tert-butyl)-3-(1H-tetrazol-5-yl)butanoic acid] | – | – | – | – | – | – | 8.03 | 7.97 | 8.57 | 25 | 200 | 12.5
CCC[C@H](C(=O)O)[C@H](CCCc1ccc(N)nc1)c1nnn[nH]1 [Example 406, (2S,3S)-6-(6-aminopyridin-3-yl)-2-propyl-3-(1H-tetrazol-5-yl)hexanoic acid] | – | – | – | – | – | – | 6.09 | 7.83 | 6.37 | 37.5 | 6.25 | 6.25
O=C(O)[C@@H](C1CCCC1)[C@H](Cc1ccc(C2CCNC2)cc1)c1nnn[nH]1 (stereo partly drawn) [Example 79, 3-(4-((2S,3S)-3-carboxy-3-cyclopentyl-2-(1H-tetrazol-5-yl)propyl)phenyl)pyrrolidin-1-ium] | 6.72 | 8.64 | 7.62 | 4.7 | 6.2 | 3.1 | – | – | – | – | – | –
CC(C)C[C@H](C(=O)O)[C@H](Cc1ccc(N)cn1)c1nnn[nH]1 [Example 113, 5-amino-2-((2S,3S)-3-carboxy-5-methyl-2-(2H-tetrazol-5-yl)hexyl)pyridin-1-ium 2,2,2-trifluoroacetate] | 5.68 | 7.10 | 6.89 | 18.8 | 9.4 | 0.78 | – | – | – | – | – | –
